Test results from patent US6162610A, “Xanthan-ester and acridan substrates for horseradish peroxidase” (Tropix, Inc., priority 1998, dated 2000).

Assays:
[1] = target: T1, HRP (Armoracia rusticana, UniProt P00433); test: Effect of detergents and polymers on chemiluminescent signal from xanthene substrate with HRP; type: biochemical, horseradish; conditions: 5 fmol HRP; for Signal + HRP: 19 min incubation
T1 sequence (P00433 31-338 limits assumed): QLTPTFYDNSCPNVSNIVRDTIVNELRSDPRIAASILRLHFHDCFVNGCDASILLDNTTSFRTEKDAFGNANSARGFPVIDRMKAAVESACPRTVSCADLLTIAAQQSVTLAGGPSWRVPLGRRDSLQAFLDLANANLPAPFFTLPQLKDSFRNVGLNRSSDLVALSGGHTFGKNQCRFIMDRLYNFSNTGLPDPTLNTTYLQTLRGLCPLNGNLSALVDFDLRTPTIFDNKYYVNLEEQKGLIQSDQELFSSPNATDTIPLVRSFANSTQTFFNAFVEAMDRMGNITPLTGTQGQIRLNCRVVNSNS
Method: (§1) Detergent was added to the buffer solution to increase the solubility of the assay components. The use of polymeric quaternary amines, neutral detergents and cationic detergents was compared using polyvinylbenzyltributylammonium chloride (Sapphire II, Tropix), Tween-20 (Sigma) and […] (CTAB, Sigma). Luminescence was measured in white opaque microplate wells using a Dynatech ML3000 luminometer. First, background signal was measured after the addition of hydrogen peroxide (10 μL of 3.5 mM stock solution) to 0.12 mL of 1.17 mM xanthene substrate (14) in 0.1 M citrate buffer pH 7.0 containing, 0.42 mg/mL hydroxypropylmethylcellulose and 4-iodophenol (iodophenol concentration was 71.4 μg/mL for the Sapphire II and Tween-20 solutions and 178.6 μg/mL for the CTAB solution) after a 19 minute incubation. HRP, 10 μL containing 5 fmol, was added to each well and the chemiluminescence was measured after a 19 min incubation.

[2] = system: HRP; test: as above; type: biochemical, horseradish; conditions: H2O2, no HRP, 19 minute incubation, citrate buffer pH 7.0
Method: as §1

[3] = target: T2, horseradish peroxidase (HRP, Type VIA) (Armoracia rusticana, UniProt P00433); test: Comparison of Xanthene substrate (14) and Enhanced Chemiluminescence (ECL), HRP dilution series; type: biochemical; conditions: for RLU: Xanthene substrate with 4-phenylphenol, Emerald II, read after 40 minutes; for S/N: Xanthene substrate, 40 minutes
T2 sequence (P00433 31-338 limits assumed): T1 sequence (P00433 31-338 limits assumed)
Method: The following conditions were used for the comparison of ECL(a commercially available optimized reagent containing Luminol-an amino-substituted cyclic acylhydrazide) and Xanthene substrate (14). ECL reagents were obtained from Amersham and were used as recommended by the manufacturer. Aliquots of horseradish peroxidase (HRP, Type VIA), 10 μL, containing 0,0.5, 5.0, 50.0, 500.0 and 5000.0 attomoles HRP were then added to 0.13 mL of each reagent formulation. To evaluate Xanthene substrate, hydrogen peroxide (10 μL of a 3.5 mM stock) was added to 10 μL of each HRP dilution and the reaction was initiated by addition of a solution of 0.12 mL of 1.17 mM Xanthene substrate in 0.1 M citrate buffer pH 7.0 containing 1.22 mM 4-phenylphenol, 0.42 mg/mL hydroxypropylmethylcellulose and 0.167 mg/mL Emerald II. The chemiluminescent signal was measured in a Dynatech ML3000 luminometer after 1 minute for ECL and 40 minutes for Xanthene substrate.

[4] = Tween-20, 4-iodophenol 71.4 μg/mL

- S/N ([1]; CTAB): 1.5
- Signal + HRP ([1]; CTAB, 4-iodophenol 178.6 μg/mL): 3.78
- S/N ([1]; Sapphire II): 15.4
- Signal + HRP ([1]; Sapphire II, 4-iodophenol 71.4 μg/mL): 229.05
- S/N ([1]; Tween-20): 1.8
- Signal + HRP [1, 4]: 0.0439
- RLU ([3]; HRP 0.5 amol): 14.12 RLU
- S/N ([3]; HRP 0.5 amol): 1.11
- RLU ([3]; HRP 5 amol): 17.52 RLU
- S/N ([3]; HRP 5 amol): 1.37
- RLU ([3]; HRP 50 amol): 63.12 RLU
- S/N ([3]; HRP 50 amol): 4.95
- RLU ([3]; HRP 500 amol): 353.31 RLU
- S/N ([3]; HRP 500 amol): 27.70
- RLU ([3]; HRP 5000 amol): 740.51 RLU
- S/N ([3]; HRP 5000 amol): 58.06
SMILES: O=C(Oc1ccccc1)C1c2ccccc2Oc2cc(O)ccc21 (stereo not shown) [compound 14, 3-Hydroxy-9H-9-xanthene-carboxylic acid, phenyl ester]
- Background ([2]; CTAB, 4-iodophenol 178.6 μg/mL): 2.45
- Background ([2]; Sapphire II (polyvinylbenzyltributylammonium chloride), 4-iodophenol 71.4 μg/mL): 14.83
- Background [2, 4]: 0.0242
